Our source for the RP-LC retention time values is the METLIN SMRT retention time set (Domingo-Almenara et al. 2019).

The series can be described thus: gradient 5% acetonitrile 3 min, to 50% in 2 min, to 85% in 15 min, held 3 min, 100 µL/min. Conditions: column: Zorbax Extend-C18 2.1 x 50 mm; eluents: water / acetonitrile, 0.1% formic acid. A digest of the protocol:
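The system's dead and dwell volumes were 40 μL and 900 μL, with a Zorbax Extend-C18 column (2.1 × 50 mm, 1.8 μm) run at 100 μL/min in water and acetonitrile containing 0.1% formic acid each. Pure standards were analyzed in mixtures of ~100 molecules by HPLC–quadrupole time-of-flight mass spectrometry in positive and negative ionization mode. Retention time was assigned from computationally picked, manually inspected adduct peaks.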
For `Cc1cc(C(=O)NCCc2ccc(Cl)cc2)c2c(=O)n(C)c(=O)n(C)c2n1`, the RP-LC retention time worked out at 835 s. Under `COCc1cnc2c(c1SCc1ccc(F)cc1)c(=O)n(C)c(=O)n2C` stands 997 s; under `CCn1cc(S(=O)(=O)N2CC(Cn3c(C)cnc3-c3cccnc3)C2)cn1`, 576 s; under `CN1CCC(c2c[nH]c3ccccc23)C1` (centres undefined), 648 s. Take `O=C(CCc1nnc2c3cc(-c4ccc(F)cc4)nn3ccn12)NCCN1CCCC1`: the RP-LC retention time is 605 s.

`COCC(=O)N1CCCN(C2=NS(=O)(=O)C(c3ccc(Cl)cc3)=C2C)CC1` displayed an RP-LC retention time of 723 s.

On to `CCc1nc(-c2csc(S(=O)(=O)N3CCCC(C(=O)NCc4cccnc4)C3)c2)no1` (centres undefined), for which the RP-LC retention time was determined as 660 s. On to `Cc1cc(C)cc(C(=O)N2CCC(n3c(-c4ccoc4)nc4cccnc43)C2)c1` (centres undefined), for which the RP-LC retention time is 804 s. `COC(=O)c1cc(OCC(=O)Nc2ccccc2F)c2cc(OC)c(OC)cc2n1`: the RP-LC retention time stood at 756 s. Under `CCc1ccc(NC(=O)C2CCN(S(=O)(=O)c3cc(C(=O)N4CCOCC4)cs3)CC2)cc1` stands 859 s; under `CCC(=O)N1CCc2cc(CNS(=O)(=O)c3ccc(F)cc3)ccc21`, 838 s. In turn, `COc1ccc(NC(=O)N2CC3CCCN3c3ccccc32)c(OC)c1` (centres undefined) returned an RP-LC retention time of 1090 s. With `CCn1ccc2c(cc(C(=O)Nc3cc(OC)c(OC)c(OC)c3)n2C)c1=O`, the RP-LC retention time is 715 s. Under `Cc1cc(C)cc(S(=O)(=O)N2CCC(c3nc(C(=O)N(C)C)c(C)o3)CC2)c1` stands 882 s; under `COc1ccccc1-c1nnc(NC(=O)C2CC(=O)N(c3ccc(F)cc3)C2)o1` (centres undefined), 652 s; under `COC(=O)C(C)NC(=O)NCc1cccn1Cc1ccccc1F` (centres undefined), 804 s.

The molecule `Cc1cccc(-n2ccnc2SCC(=O)Nc2nccs2)c1C` showed an RP-LC retention time of 670 s. `CCOc1ccccc1NC(=O)Nc1ccc2nc(N3CCN(C)CC3)cc(C)c2c1` had an RP-LC retention time of 612 s.

In turn, `COC(=O)N1CCc2ccccc2C1C(=O)NCCCn1ccnc1` (centres undefined) gave an RP-LC retention time of 556 s. Under `Cc1ccn2cc(-c3ccc(NC(=O)c4ccc(Cl)cc4)cc3)nc2n1` stands 676 s. Under `Cc1ccc(-c2cn3c(CC(=O)Nc4ccc(Cl)cc4)csc3n2)cc1C` stands 940 s. `CC(C)Cn1c(=O)c(N2CCN(C(=O)c3nccc4ccccc34)CC2)nc2ccncc21` returned an RP-LC retention time of 646 s. Under `Cc1ccc(C(=O)N2CCC(n3cnnc3-c3ccccc3)C2)cn1` (centres undefined) stands 573 s; under `O=C(c1ccco1)N1CCN(c2ncnc3c2cnn3Cc2ccccc2)CC1`, 741 s; under `Cc1ccc(Cn2c(=O)c3nn(C)cc3n3c(=O)n(Cc4ccc(N5CCCC5=O)cc4)nc23)cc1`, 812 s. As to `CCc1cccc(NC(=O)C2CCCN(c3nnc4ccccn34)C2)c1` (centres undefined), the RP-LC retention time turned out to be 734 s. `CC(C)(C)c1noc(-c2ccc(-n3cnc(C(=O)NCc4ccccc4)c3)nc2)n1` came in with an RP-LC retention time of 1060 s. Turning to `COc1cc(NC(=O)C2CCCN(c3nc4ccccc4nc3C(F)(F)F)C2)cc(OC)c1` (centres undefined), the RP-LC retention time came to 1180 s. For the molecule `CC1(C)Cc2cccc(OCC(=O)NCCc3c[nH]c4ccccc34)c2O1`, the RP-LC retention time stood at 850 s. Under `Nc1nc(SCC(=O)NCC2CCCO2)n[nH]1` (centres undefined) stands 469 s; under `Cc1sc(-c2cc(C(F)(F)F)on2)cc1S(=O)(=O)NCc1ccc(F)cc1`, 1160 s.

For the molecule `O=C1CN(S(=O)(=O)c2ccc(Cl)s2)CC2(CCCCC2)N1Cc1ccccc1`, the RP-LC retention time worked out at 1180 s. The molecule `O=C(NCCS(=O)(=O)N1CCN(c2ncccn2)CC1)c1cc2ccccc2o1` gave an RP-LC retention time of 727 s. Take `O=C(NCCCN1CCCCC1)C1CCCN(c2ncc(-c3cccc(F)c3)cn2)C1` (centres undefined): the RP-LC retention time was determined as 684 s. `CCc1cccc(C)c1NC(=O)Cn1cnc2c(sc3nc(-c4ccccc4)ccc32)c1=O` registered an RP-LC retention time of 1070 s. Under `COC(=O)c1c(C)[nH]c(C(=O)N2CCC(CC(=O)NCc3ccccc3Cl)CC2)c1C` stands 775 s.

In turn, `Cc1cccc(N2CCN(C(=O)c3sc4ncccc4c3-n3cccc3)CC2)c1` displayed an RP-LC retention time of 1060 s.

In turn, `CCCOc1nc2ccccc2nc1N1CCCC(C(=O)NCc2ccccc2)C1` (centres undefined) yielded an RP-LC retention time of 1180 s. Molecule `CC(=O)N1CCCC1c1nc(C2CN(C(=O)CCn3cc(C)cn3)C2)no1` (centres undefined) showed an RP-LC retention time of 604 s. With `COC(=O)c1ccccc1NC(=O)Cn1cccc(-c2nc(-c3ccccc3)no2)c1=O`, the RP-LC retention time is 629 s. `O=C(Nc1cccnc1)c1ccc(Cl)c(S(=O)(=O)N2CCOCC2)c1` gave an RP-LC retention time of 589 s. Under `O=C(CC1CCCC1)N1CCCC(c2nn[nH]n2)C1` (centres undefined) stands 660 s; under `Cn1nc(-c2ccc(F)cc2)cc1C(=O)NCc1n[nH]c(=O)c2ccccc12`, 694 s; under `CN(C)c1nc(Nc2ccc3c(c2)OCO3)c2cnn(-c3ccccc3)c2n1`, 1220 s. Under `CSc1ccc(-c2noc(Cn3nc(-c4ccccc4Cl)ccc3=O)n2)cc1` stands 1030 s. Under `CCCN(CC1CCOC1)S(=O)(=O)c1cccc(OC)c1` (centres undefined) stands 881 s; under `CCn1nnc2c(N3CCN(S(=O)(=O)c4cccc(C(F)(F)F)c4)CC3)ncnc21`, 894 s; under `CS(=O)(=O)N1CCC(C(=O)N2CCCC(c3nnc(-c4cccs4)o3)C2)CC1` (centres undefined), 642 s. Take `COCCOC(=O)C1=C(C)NC2=C(C(=O)C(C(=O)OC)C(C)C2)C1c1ccccc1F` (centres undefined): the RP-LC retention time came to 806 s. Under `CCN(CC)c1ccc(C(=O)N2CCc3nc[nH]c3C2)cc1` stands 550 s; under `CCCCS(=O)(=O)N1CC=C(c2cn(C)c3ncccc23)CC1`, 879 s; under `CCOC(=O)Cc1ccc(NC(=O)N2CCN(c3nc4ccccc4nc3C(F)(F)F)CC2)cc1`, 1080 s. As to `NNC(=O)CSc1nc2scc(-c3ccccc3)c2c(=O)n1-c1ccccc1`, the RP-LC retention time amounted to 838 s. Under `O=C1CN(C(=O)c2cccc(C(F)(F)F)c2)c2ccccc2N1` stands 732 s; under `CCC(C)(C(=O)NC1CCCCC1)N(Cc1ccco1)C(=O)c1ccc2c(c1)OCO2` (centres undefined), 564 s; under `CCOc1ccc(S(=O)(=O)N2CCC(C(=O)NCc3csc(-c4cccs4)n3)CC2)cc1`, 914 s.

`Cc1ccn2c(NC(=O)c3ccc4ccccc4c3)c(-c3ccc(F)cc3)nc2c1` came in with an RP-LC retention time of 765 s. For `COc1cccc(-c2nc(C3CCN(S(=O)(=O)c4cccc(F)c4)CC3)no2)c1`, the RP-LC retention time turned out to be 1110 s. Under `CCCNC(=O)C1CCCN(c2nc3ncn(CC(=O)Nc4cc(C)ccc4C)c(=O)c3s2)C1` (centres undefined) stands 703 s.
